From ChEMBL document CHEMBL4020769, “Gemcitabine anti-proliferative activity significantly enhanced upon conjugation with cell-penetrating peptides” (Bioorg Med Chem Lett, 2017) come the findings set out here.

As usually defined, the half-life is the time in which the quantity being followed falls by half. A low value points to rapid decline. The IC50 is the point on the concentration scale where inhibition reaches its midpoint. Higher therefore signals weaker potency in that assay.

Peptide text beside a SMILES is read from it. * marks the point of attachment. X1 = O=C(CCS*)Nc1ccn([C@@H]2O[C@H](CO)[C@@H](O)C2(F)F)c(=O)n1

Data set [1] can be described thus: Prodrug conversion in pH 7.4 phosphate buffered saline assessed as gemcitabine release by HPLC method.
A short description of data set [2]: Half life in pH 7.4 phosphate buffered saline by HPLC method. The data set is classed as physicochemical.
Another data set concerns MKN-28. As to the kind of experiment: Antiproliferative activity against human MKN28 cells after 48 hrs by sulforhodamine B assay. The data set is classed as functional, cell-based. To be noted: MKN-28, 48 h. (In general: Sulforhodamine B stains cellular protein and so reports cell mass.)
For a further data set, the system named is Caco-2. As to the kind of experiment: Antiproliferative activity against human Caco2 cells after 48 hrs by sulforhodamine B assay. The format is functional, cell-based. The following applies: Caco-2, 48 h.
For data set [3], the system named is HT-29. The data set is described as follows: Antiproliferative activity against human HT-29 cells after 48 hrs by sulforhodamine B assay. The format is functional, cell-based. To be noted: for IC50: HT-29, 48 h.
The subject of data set [4] is HT-29. As to the kind of experiment: Growth inhibition of human HT-29 cells after 48 hrs by sulforhodamine B assay relative to control. The data set is classed as functional.

`CC[C@H](C)[C@H](NC(=O)[C@H](CCCNC(=N)N)NC(=O)[C@H](CCCNC(=N)N)NC(=O)[C@H](CCCNC(=N)N)NC(=O)[C@H](CC(C)C)NC(=O)[C@@H](NC(=O)[C@@H](NC(=O)[C@H](CC(C)C)NC(=O)[C@H](CC(C)C)NC(=O)[C@@H](N)CSSCCC(=O)Nc1ccn([C@@H]2O[C@H](CO)[C@@H](O)C2(F)F)c(=O)n1)[C@@H](C)CC)[C@@H](C)CC)C(=O)N[C@@H](CCCNC(=N)N)C(=O)N[C@@H](CCCCN)C(=O)N[C@@H](CCC(N)=O)C(=O)N[C@@H](C)C(=O)N[C@@H](Cc1cnc[nH]1)C(=O)N[C@@H](C)C(=O)N[C@@H](Cc1cnc[nH]1)C(=O)N[C@@H](CO)C(=O)N[C@@H](CCCCN)C(=O)O` (H-C(X1)LLIILRRRIRKQAHAHSK-OH): the Drug metabolism result in data set [1] was “Metabolite detected”. This molecule also gave a half-life in data set [2] of 42 h. The IC50 in the data set with MKN-28 is 20.7 µM; in the data set with Caco-2, above 100 µM; with HT-29 [3], 45.2 µM. The Activity result in the data set with HT-29 [3] is “Dose-dependent effect”.
`CC[C@H](C)[C@H](NC(=O)[C@H](CCCCN)NC(=O)[C@@H](NC(=O)[C@H](CCC(N)=O)NC(=O)[C@H](CCCNC(=N)N)NC(=O)[C@@H](N)CS)[C@@H](C)CC)C(=O)N[C@@H](Cc1c[nH]c2ccccc12)C(=O)N[C@@H](Cc1ccccc1)C(=O)N[C@@H](CCC(N)=O)C(=O)N[C@@H](CC(N)=O)C(=O)N[C@@H](CCCNC(=N)N)C(=O)N[C@@H](CCCNC(=N)N)C(=O)N[C@@H](CCSC)C(=O)N[C@@H](CCCCN)C(=O)N[C@@H](Cc1c[nH]c2ccccc12)C(=O)N[C@@H](CCCCN)C(=O)N[C@@H](CCCCN)C(=O)O`: the IC50 with MKN-28, in the data set on Caco-2 and in the data set with HT-29 [3] was above 100 µM each time.
Regarding `Nc1ccn([C@@H]2O[C@H](CO)[C@@H](O)C2(F)F)c(=O)n1` [GEMCITABINE], the “growth inhibition (GI)” value in the data set on HT-29 [4] amounted to 30%. In addition, the IC50 in the data set on MKN-28, in the data set on Caco-2 and with HT-29 [3] was above 100 µM throughout.
For H-CLLIILRRRIRKQAHAHSK-OH, the IC50 in the data set on MKN-28, in the data set with Caco-2 and with HT-29 [3] was above 100 µM each time.
Turning to `CC[C@H](C)[C@H](NC(=O)[C@H](CCCCN)NC(=O)[C@@H](NC(=O)[C@H](CCC(N)=O)NC(=O)[C@H](CCCNC(=N)N)NC(=O)[C@@H](N)CSSCCC(=O)Nc1ccn([C@@H]2O[C@H](CO)[C@@H](O)C2(F)F)c(=O)n1)[C@@H](C)CC)C(=O)N[C@@H](Cc1c[nH]c2ccccc12)C(=O)N[C@@H](Cc1ccccc1)C(=O)N[C@@H](CCC(N)=O)C(=O)N[C@@H](CC(N)=O)C(=O)N[C@@H](CCCNC(=N)N)C(=O)N[C@@H](CCCNC(=N)N)C(=O)N[C@@H](CCSC)C(=O)N[C@@H](CCCCN)C(=O)N[C@@H](Cc1c[nH]c2ccccc12)C(=O)N[C@@H](CCCCN)C(=O)N[C@@H](CCCCN)C(=O)O`, in data set [1], the Drug metabolism result is given as “Metabolite detected”. The molecule further gave a half-life in data set [2] of 230 h. The IC50 in the data set with MKN-28 was 47 µM; in the data set with Caco-2, 67.1 µM; in the data set with HT-29 [3], 47.3 µM. Besides, the Activity result in the data set on HT-29 [3] was “Dose-dependent effect”.
